Here are results for 92 sequences from the OligoGym collection.

This data set deals with IRF4. To be noted: ASO.

Several values for one entry are separate records, joined by “and”; a condition that tells them apart may be missing. Equal values may be shown once. After the bases stand the sugars from the 5' end (letter, count) and the backbone: PS all phosphorothioate, else s phosphorothioate and o phosphodiester by linkage. Methylation of C is not given here. e = 2'-O-(2-methoxyethyl) (MOE); k = constrained ethyl (cEt); d = 2'-deoxy (DNA)

With “ATGTGTATTACTCTTA (sugars kkdddddddddkdkdk, PS)”, the target mRNA inhibition (MM.1R, 1 µM) is 44% and 32%. As for GCATCTCTAAAGAATG (sugars k3 d10 k3, PS), the target mRNA inhibition (SK-MEL-28, 4 µM) amounted to 61%. Turning to “CAGTGACTTGCATCCA (sugars kkdddddddddkekek, PS)”, the target mRNA inhibition (MM.1R, 1 µM) stood at 26%. Regarding CAACTAGCAGGGCACG (sugars k3 d10 k3, PS), the target mRNA inhibition (SK-MEL-28, 4 µM) is 38%. For the sequence CGTAGTCCCTCCAGCT (sugars k3 d10 k3, PS), the target mRNA inhibition (MM.1R, 1 µM) was 27%.

As to TGAGCACTCTTACTCC (sugars k3 d10 k3, PS), the target mRNA inhibition (MM.1R, 1 µM) was -6%. For GACAATGGAGATACTT (sugars k3 d10 k3, PS), the target mRNA inhibition (MM.1R, 1 µM) is 33% and 37%. Turning to TCAACTTGTGACCCAC (sugars k3 d10 k3, PS), the target mRNA inhibition (MM.1R, 1 µM) worked out at 14%. On to GGAGCTAGTTTTATGT (sugars k3 d10 k3, PS), for which, for the setting “MM.1R, 1 µM”, the target mRNA inhibition is -28%. Turning to CCGGAGACCTTGAAGA (sugars k3 d10 k3, PS), the target mRNA inhibition (SK-MEL-28, 4 µM) was determined as 9%. On to TGCAAAATAGTCACTC (sugars k3 d10 k3, PS), for which the target mRNA inhibition (SK-MEL-28, 4 µM) was 48%. Regarding TGCGGAGGTTCCTTGA (sugars k3 d10 k3, PS), the target mRNA inhibition (MM.1R, 1 µM) was 12%. For GCCCAAGCCTTGAAGA (sugars k3 d10 k3, PS), the target mRNA inhibition (SK-MEL-28, 4 µM) amounted to 15%. Consider CCGTGAAACAGCAGTT (sugars k3 d10 k3, PS), for which, for the setting “SK-MEL-28, 4 µM”, the target mRNA inhibition was 56%.

As for “AGTGTCTAAAGTCCCA (sugars kddddddddddkekek, PS)”, the target mRNA inhibition (MM.1R, 1 µM) was -1% and 3%.

As for GGCCACCGACTCTTTT (sugars k3 d10 k3, PS), the target mRNA inhibition (SK-MEL-28, 4 µM) was 13%. Take CCTGAGTATTTCATAG (sugars k3 d10 k3, PS): the target mRNA inhibition (SK-MEL-28, 4 µM) turned out to be 42%.

On to GGGCACAAGCATAAAA (sugars k3 d10 k3, PS), for which, for the setting “SK-MEL-28, 4 µM”, the target mRNA inhibition is 20%. Regarding GTTCAGAAACCCTCAT (sugars k3 d10 k3, PS), the target mRNA inhibition (SK-MEL-28, 4 µM) came to 13%. Consider TGCGGCTCCGGCGACG (sugars k3 d10 k3, PS), for which, under “MM.1R, 1 µM”, the target mRNA inhibition is -20%. Regarding GCCGGCCTGGCCCTTC (sugars k3 d10 k3, PS), the target mRNA inhibition (SK-MEL-28, 4 µM) was -14%. For the sequence GCAAAGCCACCCTTCC (sugars k3 d10 k3, PS), the target mRNA inhibition (SK-MEL-28, 4 µM) stood at 60%.

On to CTGCATTTGCAAATAA (sugars k4 d8 k4, PS), for which the target mRNA inhibition (SK-MEL-28, 4 µM) is -8%. In the case of GAAGCTTAGTTATCTG (sugars k3 d10 k3, PS), the target mRNA inhibition (MM.1R, 1 µM) was 45% and 39%. As for TCCACTGTTAAAGCAG (sugars k3 d10 k3, PS), the target mRNA inhibition (SK-MEL-28, 4 µM) was 55%. Take TCTGAGTAGACTTCTT (sugars k3 d10 k3, PS): the target mRNA inhibition (MM.1R, 1 µM) is 14%. For the sequence ATGCTTGGCTCTGTGG (sugars k3 d10 k3, PS), the target mRNA inhibition (SK-MEL-28, 4 µM) is 76%. For AATCACTTGTCTTGGG (sugars k3 d10 k3, PS), under “SK-MEL-28, 4 µM”, the target mRNA inhibition came to 60%. With CTTGGAGAAGTCCCGT (sugars k3 d10 k3, PS), the target mRNA inhibition (SK-MEL-28, 4 µM) was determined as 39%.

For the sequence CAGTGTGATTAATTCT (sugars k3 d10 k3, PS), the target mRNA inhibition (MM.1R, 1 µM) came to 17%. Still for that read-out and setting: to “ACTTTTAGAGAGGAGA (sugars kkdddddddddkdkdk, PS)” belongs 34%; to TTGATGTGATAGCTGA (sugars k3 d10 k3, PS), 55%.

In the case of TTTATGTTAGCCAATT (sugars k3 d10 k3, PS), the target mRNA inhibition (MM.1R, 1 µM) was 25% and 13%. Turning to “ACACTTTTAGAGAGGA (sugars kkkdddddddddkeke, PS)”, the target mRNA inhibition (MM.1R, 1 µM) was determined as 37%.

Turning to GCGCATTTCAGTAAAT (sugars k3 d10 k3, PS), under “SK-MEL-28, 4 µM”, the target mRNA inhibition came to 33%. CGTGAAACAGCAGTTC (sugars k3 d10 k3, PS): the target mRNA inhibition (SK-MEL-28, 4 µM) amounted to 40%. Turning to ATACATGTCTGGTTTA (sugars k3 d10 k3, PS), the target mRNA inhibition (MM.1R, 1 µM) came out at 4%. Consider TGCTGATCCTGGGAGT (sugars k3 d10 k3, PS), for which, under “SK-MEL-28, 4 µM”, the target mRNA inhibition is 79%. As to TTCAGAGTCCTGAGAC (sugars k3 d10 k3, PS), where the note is “SK-MEL-28, 4 µM”, the target mRNA inhibition worked out at 46%.

Turning to GAATGGCGAGTTGGCA (sugars k3 d10 k3, PS), the target mRNA inhibition (MM.1R, 1 µM) was 39% and 40%. Regarding GACTCCGGGAGCCTGG (sugars k3 d10 k3, PS), the target mRNA inhibition (SK-MEL-28, 4 µM) turned out to be 65%. Regarding TATACATTGAGGCATA (sugars k3 d10 k3, PS), the target mRNA inhibition (MM.1R, 1 µM) came to 7%. As for TTTTAAGGCCCTGTCA (sugars k3 d10 k3, PS), the target mRNA inhibition (SK-MEL-28, 4 µM) turned out to be 18%. For ACTATAATTGGCACGA (sugars k3 d10 k3, PS), the target mRNA inhibition runs as follows: (SK-MEL-28, 0.185 µM) 6%; (SK-MEL-28, 4 µM) 69%; (SK-MEL-28, 5 µM) 72%; (SK-MEL-28, 15 µM) 90%. In the case of TTATTAGACTGACAGC (sugars k3 d10 k3, PS), under “SK-MEL-28, 4 µM”, the target mRNA inhibition amounted to 37%. Consider AGTCAGACAGTGCGCC (sugars k3 d10 k3, PS), for which, for the setting “SK-MEL-28, 4 µM”, the target mRNA inhibition was 10%. Consider GCCGCCCTCCAGGTTC (sugars k3 d10 k3, PS), for which, for the setting “SK-MEL-28, 4 µM”, the target mRNA inhibition was 49%. With TCAACCTGGAAGGATG (sugars k3 d10 k3, PS), under “SK-MEL-28, 4 µM”, the target mRNA inhibition was determined as 30%. As for “GACAGTGACTTGCATC (sugars kddddddddddkekek, PS)”, for the setting “MM.1R, 1 µM”, the target mRNA inhibition came out at 8%.

For GCTGAGAGTTCAGGTC (sugars k3 d10 k3, PS), the target mRNA inhibition (MM.1R, 1 µM) came out at 7%. For the sequence CCTGAGAGTAAACTTG (sugars k3 d10 k3, PS), under “SK-MEL-28, 4 µM”, the target mRNA inhibition turned out to be 18%. With GTCAAACTATAATTGG (sugars k3 d10 k3, PS), for the setting “SK-MEL-28, 4 µM”, the target mRNA inhibition came out at 61%. The same measure, in the same setting: as for AGATAAGAAGCACTGG (sugars k3 d10 k3, PS), the figure is 25%; as for GCCTAGGACTAAGGAC (sugars k3 d10 k3, PS), 33%. On to GGACGAACGCGCAAAA (sugars k3 d10 k3, PS), for which the target mRNA inhibition (SK-MEL-28, 4 µM) came to 35%. In the case of GCCAAAGAGCCCAATT (sugars k3 d10 k3, PS), the target mRNA inhibition (SK-MEL-28, 4 µM) was 33%. On to TATCATATGCCCAATA (sugars k3 d10 k3, PS), for which, where the note is “SK-MEL-28, 4 µM”, the target mRNA inhibition is 32%. Take GCATAGTGATGAGATA (sugars k3 d10 k3, PS): under “SK-MEL-28, 4 µM”, the target mRNA inhibition was 59%. Turning to “TTCATGTAAAGTCTGC (sugars kkdddddddddekeke, PS)”, the target mRNA inhibition (MM.1R, 1 µM) was 32% and 39%. With GCACACACAAGTGGCC (sugars k3 d10 k3, PS), for the setting “SK-MEL-28, 4 µM”, the target mRNA inhibition stood at 64%. On to “TGTAGTATGAGAAACG (sugars kkdddddddddkekek, PS)”, for which, under “MM.1R, 1 µM”, the target mRNA inhibition came to 12%. As for AGAAAACCCCCCTCTC (sugars k3 d10 k3, PS), the target mRNA inhibition (SK-MEL-28, 4 µM) amounted to 23%.

Regarding GAACACACCACTATTC (sugars k3 d10 k3, PS), under “MM.1R, 1 µM”, the target mRNA inhibition is -20%. TCAAACTATAATTGGC (sugars k3 d10 k3, PS): the target mRNA inhibition (SK-MEL-28, 4 µM) amounted to 74%. Consider “ACTGCTTGAGGTTTTC (sugars kkddddddddddkeke, PS)”, for which the target mRNA inhibition (MM.1R, 1 µM) was found to be 21%.

Regarding CTATATAAAAAGTGGG (sugars k3 d10 k3, PS), under “SK-MEL-28, 4 µM”, the target mRNA inhibition stood at 16%. Consider TGGCGGAGCATCAACA (sugars k3 d10 k3, PS), for which, where the note is “SK-MEL-28, 4 µM”, the target mRNA inhibition was determined as 37%. Consider “AAGCATTTTATCATCC (sugars kkdddddddddkdkdk, PS)”, for which the target mRNA inhibition (MM.1R, 1 µM) came to 3%. As for TATCATGCATACCAAA (sugars k3 d10 k3, PS), the target mRNA inhibition was -4% (MM.1R, 0.074 µM); -7% (MM.1R, 0.222 µM); 3% (MM.1R, 0.666 µM); 14% (MM.1R, 2 µM); 58% (SK-MEL-28, 4 µM). With CAAACACTAATACCTA (sugars k3 d10 k3, PS), where the note is “SK-MEL-28, 4 µM”, the target mRNA inhibition stood at 31%. Same read-out and setting: as for AGGAGATATTAATTAC (sugars k3 d10 k3, PS), the figure is 57%; as for AGTTAAGGTGCCTCAA (sugars k3 d10 k3, PS), -1%. For the sequence GCACTCTTACTCCGCT (sugars k3 d10 k3, PS), the target mRNA inhibition (MM.1R, 1 µM) came to 2%. Still for that read-out and setting: to GCGCTCTCTCTGTAAC (sugars k3 d10 k3, PS) belongs -7%; to “CTTGATAAAGGCTGAA (sugars k3 d9 k3 e1, PS)”, 36%.

As to ATGATGTATACCAACG (sugars k3 d10 k3, PS), the target mRNA inhibition (SK-MEL-28, 4 µM) amounted to 86%. Turning to TCCCACGCGGGAGGCT (sugars k3 d10 k3, PS), the target mRNA inhibition (SK-MEL-28, 4 µM) worked out at 1%. For the sequence AGCAAGAGCTTACTGT (sugars k3 d10 k3, PS), under “MM.1R, 1 µM”, the target mRNA inhibition was -6%.

With GCCCAGCTAGCGCGCA (sugars k3 d10 k3, PS), where the note is “SK-MEL-28, 4 µM”, the target mRNA inhibition amounted to 29%. Take CTGCATCAAATCAAGT (sugars k3 d10 k3, PS): where the note is “SK-MEL-28, 4 µM”, the target mRNA inhibition stood at 47%.

In the case of “GGGATTATATACTGGT (sugars kddddddddddkekek, PS)”, the target mRNA inhibition (MM.1R, 1 µM) was determined as 34%.

In the case of “CACATCAATGTTTTAG (sugars kkdddddddddkdkdk, PS)”, the target mRNA inhibition (MM.1R, 1 µM) was 28% and 37%. As to TGGACTCGGAGCTGAG (sugars k3 d10 k3, PS), the target mRNA inhibition (SK-MEL-28, 4 µM) came to 24%. Regarding GCTCATCCCGTCCAGC (sugars k3 d10 k3, PS), the target mRNA inhibition (SK-MEL-28, 4 µM) came to 15%. With ATAAAGACCTTAACCA (sugars k3 d10 k3, PS), where the note is “SK-MEL-28, 4 µM”, the target mRNA inhibition worked out at 27%. With CGCCTTAATGTTCAGC (sugars k3 d10 k3, PS), the target mRNA inhibition (SK-MEL-28, 4 µM) stood at 66%. On to “TGATAGCTGAGCTGAT (sugars kdddddddddkekeke, PS)”, for which the target mRNA inhibition (MM.1R, 1 µM) worked out at 17%. Regarding ATTCCGCGCGCAGAGC (sugars k3 d10 k3, PS), where the note is “MM.1R, 1 µM”, the target mRNA inhibition is -21%. As to TTTCAACTTGTGACCC (sugars k3 d10 k3, PS), the target mRNA inhibition (MM.1R, 1 µM) came out at 1%. As to GTTAGCTACAAAGAGC (sugars k3 d10 k3, PS), where the note is “SK-MEL-28, 4 µM”, the target mRNA inhibition came out at 41%.

On to ATCTATAAGATGTATA (sugars k3 d10 k3, PS), for which the target mRNA inhibition (SK-MEL-28, 4 µM) was -1%.

As for CCACATGTCCCGTGGG (sugars k3 d10 k3, PS), the target mRNA inhibition (MM.1R, 1 µM) is -28%.
